Data reported in US20160015813A1, “NOVEL AND SYNERGISTIC COMPOSITION OF LECITHIN AND LYSOLECITHIN FOR IMPROVING BIOAVAILABILITY AND SOLUBILITY OF HYDROPHOBIC COMPOUNDS AND EXTRACTS” (priority 2014, published 2016).
Like-named read-outs stand apart in the source and are kept apart here.

Test: Oral bioavailability study of berberine formulation versus unformulated berberine (berberine concentration in serum)
Assay type: in vivo, Sprague Dawley rats
Conditions: Sprague Dawley, rat
Experimental: The study was conducted to evaluate the bioavailability of orally administered curcuminoid compositions (Table 1 and Example. 2), formulated using a synergistic combination of lecithin and lysolecithin in Sprague Dawley rats. Compositions formulated with lecithin or lysolecithin alone were also tested along with Meriva (Batch No FG-6558). These formulations were prepared using similar procedure described in examples 2 and 3. Total of twelve (12) animals were divided into four groups having three animals in each group. The test substances were administered orally to the animals via oral gavage once at 125 mg/Kg body weight active ingredient equivalent to Active ingredient. Pre-dose or 0th time blood samples were collected from all the animals before dosing the test substance, followed by blood sampling at 0.15, 0.5, 1, 1.5, 2, 4, 8, 12 and 24 hrs after dosing the test substance by sinus orbital plexus under anesthesia. Serum was separated from blood by centrifugation and was subjected to LC-MS/MS analysis for estimation of curcumin concentration in serum samples.
The similar protocol was used for the evaluation of oral bio-availability of berberine formulation (Example. 3) in comparison with the unformulated berberine and for estimation of berberine concentration in serum samples. The berberine compound and its formulations were supplemented to the animals at a dose equivalent to 100 mg/kg bodyweight of active Berberine.

AUC(0-t) (serum, 100 mg/kg bodyweight of active Berberine, single oral administration, read-out: Oral exposures (AUClast)): 23.7 ± 7.99 ng·h/mL
Cmax (rats, single oral dose equivalent to 100 mg/kg BW berberine, berberine in serum, 6 animals): 4.2 ± 1.85 ng/mL
AUC(0-t) (rats, single oral dose equivalent to 100 mg/kg BW berberine, berberine in serum, 6 animals, read-out: AUClast (0-24 h)): 23.7 ± 7.99 ng·h/mL
SMILES: COc1ccc2cc3[n+](cc2c1OC)CCc1cc2c(cc1-3)OCO2 [LI32001, Berberine]
